Reference: article PMC9917632, “Structural and Biochemical Analyses of the Butanol Dehydrogenase from Fusobacterium nucleatum” (International Journal of Molecular Sciences, 2023)
Values belong to the compound of their own block, whether it stands above or below them.

Assays:
[1] = molecular target: T1, FnYqdH (Fusobacterium nucleatum YqdH, butanol dehydrogenase) (Fusobacterium nucleatum, UniProt Q8R612); test: NADPH consumption at […] nm, double reciprocal plot; format: biochemical; conditions: 0.1-1 mM NADPH; co-substrate butanal; Tris-HCl pH 6.0, CoSO4, 35 °C (standard assay)
T1 construct: gene FN1415; recombinant, yqdH cloned NcoI/XhoI in pPRO-EX-HTA, expressed in Escherichia coli; dimer; 384 residues modelled (CD to residue 385)
T1 sequence (Q8R612 1-385): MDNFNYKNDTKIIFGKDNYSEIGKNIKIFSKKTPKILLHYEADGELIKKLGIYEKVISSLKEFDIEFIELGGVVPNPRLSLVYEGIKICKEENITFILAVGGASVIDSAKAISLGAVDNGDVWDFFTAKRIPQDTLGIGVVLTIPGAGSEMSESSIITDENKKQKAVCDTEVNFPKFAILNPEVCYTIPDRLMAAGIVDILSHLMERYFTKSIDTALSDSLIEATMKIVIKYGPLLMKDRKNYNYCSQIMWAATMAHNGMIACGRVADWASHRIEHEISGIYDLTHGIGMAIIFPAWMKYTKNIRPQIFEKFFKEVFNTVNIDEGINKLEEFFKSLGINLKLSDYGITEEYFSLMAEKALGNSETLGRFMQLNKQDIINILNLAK

[2] = molecular target: Fusobacterium nucleatum YqdH (butanol dehydrogenase) (Fusobacterium nucleatum); test: SEC; purified FnYqdH (500 uL of 1 mg/mL) on Superdex 200 10/300 GL; 20 mM Tris-HCl pH 8.0, 150 mM NaCl, 2 mM BME; 0.5 mL/min
[3] = molecular target: T1, FnYqdH (Fusobacterium nucleatum YqdH, butanol dehydrogenase); test: X-ray crystal structure, […] Å, soaked crystal; conditions: soaked 1 min with 10 mM NADH and 2 mM Co2+; nucleotide-binding domain; open conformation
[4] = molecular target: T2, TmBDH (Thermotoga maritima, UniProt Q9WZS7); test: NADH consumption, spectrophotometric; format: biochemical; conditions: metal-free enzyme reconstituted with 2 mM Zn2+, Co2+, Ni2+ or Fe3+; co-substrate butanal
T2 construct: gene TM_0820; purified protein, EDTA-treated (metal-free) then metal-reconstituted
T2 sequence (Q9WZS7 1-395): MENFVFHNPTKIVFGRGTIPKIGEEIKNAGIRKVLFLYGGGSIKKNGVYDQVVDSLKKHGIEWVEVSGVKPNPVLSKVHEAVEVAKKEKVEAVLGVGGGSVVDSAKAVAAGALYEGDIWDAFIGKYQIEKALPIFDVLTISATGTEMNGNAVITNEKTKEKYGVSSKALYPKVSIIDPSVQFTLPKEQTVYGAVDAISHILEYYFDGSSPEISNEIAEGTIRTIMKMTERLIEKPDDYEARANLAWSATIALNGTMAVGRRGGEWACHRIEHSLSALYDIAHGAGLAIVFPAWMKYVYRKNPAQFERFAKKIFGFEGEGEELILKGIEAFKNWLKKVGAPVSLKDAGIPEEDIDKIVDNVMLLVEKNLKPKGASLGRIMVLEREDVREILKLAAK

[5] = molecular target: T1, FnYqdH (Fusobacterium nucleatum YqdH, butanol dehydrogenase); test: NADH consumption at […] nm, double reciprocal plot; format: biochemical; conditions: 0.1-0.5 mM NADH; co-substrate butanal; Tris-HCl pH 6.0, CoSO4, 35 °C (standard assay)

Compound: NC(=O)C1=CN([C@@H]2O[C@H](COP(=O)(O)OP(=O)(O)OC[C@H]3O[C@@H](n4cnc5c(N)ncnc54)[C@H](OP(=O)(O)O)[C@@H]3O)[C@@H](O)[C@H]2O)C=CC1 [NADPH]
apparent Km [1]: NADH is preferred over NADPH in terms of FnYqdH activity (Figure S2)

stoichiometry N [2]: 2
Compound: Fusobacterium nucleatum YqdH (butanol dehydrogenase) (enzyme)

Compound: NC(=O)C1=CN([C@@H]2O[C@H](COP(=O)(O)OP(=O)(O)OC[C@H]3O[C@@H](n4cnc5c(N)ncnc54)[C@H](O)[C@@H]3O)[C@@H](O)[C@H]2O)C=CC1 [NADH]
X-ray crystal structure, 2.72 Å, soaked crystal [3]: an electron-density map corresponding to NADH and metal ions was clearly observed
NADH consumption, spectrophotometric [4]: monitoring NADH consumption for five different metal ions
apparent Km [5]: the apparent Km and Vmax values were measured with a purified protein
